Results as given in patent US4438031A, “N-(Alkylsulfonyl)-L-proline amide and N-(alkylsulfonyl)-2-carboxylic acid amide-indoline derivatives” (American Home Products Corporation, priority 1982, dated 1984).
Counter-ions that a name gives are not always drawn.

Key:
[1] = oral administration; cited from earlier work
[2] = target: T1, angiotensin converting enzyme (Oryctolagus cuniculus, UniProt P12822); assay: in vitro angiotensin converting enzyme (ACE) inhibition, rabbit lung extract, substrate hippuryl-L-histidyl-L-leucine (Cushman et al.); format: biochemical
T1 construct: The in vitro assay utilizes rabbit lung extract; from tissue; host or cells: rabbit lung extract
T1 sequence (P12822 34-1310): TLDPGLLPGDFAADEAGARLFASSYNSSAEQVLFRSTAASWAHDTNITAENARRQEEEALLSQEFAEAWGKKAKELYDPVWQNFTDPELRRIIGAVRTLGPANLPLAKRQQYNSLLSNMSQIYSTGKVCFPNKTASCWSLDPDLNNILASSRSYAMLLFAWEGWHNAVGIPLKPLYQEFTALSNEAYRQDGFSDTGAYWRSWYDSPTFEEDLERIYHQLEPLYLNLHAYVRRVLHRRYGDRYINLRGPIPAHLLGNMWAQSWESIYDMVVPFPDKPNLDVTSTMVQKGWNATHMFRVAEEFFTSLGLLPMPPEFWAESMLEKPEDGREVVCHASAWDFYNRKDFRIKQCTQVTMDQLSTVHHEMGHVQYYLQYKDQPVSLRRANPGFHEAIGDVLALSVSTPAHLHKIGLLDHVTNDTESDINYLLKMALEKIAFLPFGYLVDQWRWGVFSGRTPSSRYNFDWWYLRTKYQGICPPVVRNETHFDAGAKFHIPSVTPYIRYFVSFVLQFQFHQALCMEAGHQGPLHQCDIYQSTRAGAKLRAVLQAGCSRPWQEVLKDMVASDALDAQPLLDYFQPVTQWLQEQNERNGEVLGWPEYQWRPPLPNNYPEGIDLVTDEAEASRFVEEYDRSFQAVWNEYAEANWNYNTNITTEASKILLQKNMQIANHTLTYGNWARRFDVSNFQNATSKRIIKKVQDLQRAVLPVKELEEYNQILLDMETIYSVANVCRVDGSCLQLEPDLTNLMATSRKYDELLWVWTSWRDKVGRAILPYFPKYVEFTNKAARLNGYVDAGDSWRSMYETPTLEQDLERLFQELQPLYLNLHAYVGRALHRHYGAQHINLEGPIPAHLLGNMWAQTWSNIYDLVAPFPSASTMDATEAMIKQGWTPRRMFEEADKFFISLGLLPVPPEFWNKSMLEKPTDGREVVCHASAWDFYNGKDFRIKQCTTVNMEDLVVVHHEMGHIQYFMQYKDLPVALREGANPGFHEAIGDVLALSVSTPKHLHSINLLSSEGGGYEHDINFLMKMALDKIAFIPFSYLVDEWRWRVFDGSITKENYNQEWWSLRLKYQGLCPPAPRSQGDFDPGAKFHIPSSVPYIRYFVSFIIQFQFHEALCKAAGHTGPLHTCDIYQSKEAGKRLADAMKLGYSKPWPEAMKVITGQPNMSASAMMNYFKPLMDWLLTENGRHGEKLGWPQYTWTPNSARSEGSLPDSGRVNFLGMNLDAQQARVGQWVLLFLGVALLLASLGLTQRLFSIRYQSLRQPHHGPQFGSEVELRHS
Procedure: The angiotensin converting enzyme (ACE) inhibitory property of the compounds is measured in vitro and in vivo. The in vitro assay utilizes rabbit lung extract and a specific tripeptide substrate, hippuryl-L-histidyl-L-leucine being preferred, and follows the method of Cushman et al., Biochem. Pharmacol, 20, 1637-1648 (1971).

[3] = humans with certain forms of hypertension; cited from earlier work

Compound	oral activity as an anti-hypertensive agent [1]	inhibition at 1 µg/mL ([2]; concentration 1000 ng/ml)	inhibition at 0.05 µg/mL ([2]; concentration 50 ng/ml)	also measured
C[C@H](CS)C(=O)N1CCCC1C(=O)O (stereo in doubt) [D-3-mercapto-2-methylpropanoyl-L-proline]	effective when administered orally			
C[C@H](CSC(=O)c1ccccc1)C(=O)N1CCC[C@H]1C(=O)NS(C)(=O)=O [Example 1, Benzenecarbothioic Acid S-[(2S)-2-Methyl-3-[(2S)-2-[(Methylsulfonylamino)Carbonyl]-1-Pyrrolidinyl]-3-Oxopropyl]Ester, Dicyclohexylamine Salt]		80%		inhibition at 0.1 µg/mL ([2]; concentration 100 ng/ml): 35 to 38%; inhibition of angiotensin converting enzyme ([2]; concentration 100 ng/ml, listed as Example 2): 35-38%
C[C@H](CS)C(=O)N1CCC[C@H]1C(=O)NS(C)(=O)=O [Example 4, (S)-1-[(2S)-3-Mercapto-2-Methyl-1-Oxopropyl]-N-(Methylsulfonyl)-2-Pyrrolidinecarboxamide]		89 to 92%	32%	inhibition of angiotensin converting enzyme ([2]; concentration 50 ng/ml): 50-57%
Pyr-Trp-Pro-Arg-Pro-Gln-Ile-Pro-Pro (WPRPQIPP; N-terminal pyroglutamyl; printed: Trp-Pro-Arg-Pro-Gln-Ile-Pro-Pro) [BPP9a]	not orally active			anti-hypertensive effect in clinical studies [3]: effective anti-hypertensive agent
C[C@H](CSC(=O)c1ccccc1)C(=O)N1CCC[C@H]1C(=O)NS(C)(=O)=O [Example 3, Benzenecarbothioic Acid S-[(2S)-2-Methyl-3-[(2S)-2-[(Methylsulfonylamino)Carbonyl]-1-Pyrrolidinyl]-3-Oxopropyl]Ester]			14 to 21%	inhibition of angiotensin converting enzyme ([2]; concentration 100 ng/ml): 31-37%; inhibition of angiotensin converting enzyme ([2]; concentration 1000 ng/ml): 76-80%
